US20140357706A1, “Stearate Compounds” (THE UAB RESEARCH FOUNDATION, priority 2011, published 2014)

Key:
[1] = system: 3T3L1 preadipocytes; test: Cell death and apoptosis of 3T3L1 preadipocytes (trypan blue, LDH, flow cytometry); assay type: cell-based, mouse; settings: 50 μM, vs control; for Percentage of dead cells (trypan blue): 48 hour treatment; for Dead cells (flow cytometry): 48 hours; for Cytotoxicity (lactate dehydrogenase): after 24 hours
Method: (§1) 50 μM of stearate, oleate or linoleate was used to treat 3T3L1 cells as this concentration is centered within the normal range for non-esterified stearate in the plasma of humans. Stearate, oleate, or linoleate was loaded onto fatty acid free BSA according to the method reported by Spector and Hoak (Spector and Hoak, 1969). Briefly, stearate (0.5 g) was dissolved in chloroform (100 mL) and mixed well with 10 g diatomaceous earth in a 1 liter flask. The mixture was stirred and dried under nitrogen until powder. Fatty acid free BSA (1 g) was dissolved in 100 mL with DMEM without phenol red and mixed with 3 g of the stearate/diatomaceous earth mixture and stirred for 30 minutes. The stearate/BSA solution was filtered through a 0.45 μm filter, and adjusted to pH 7.4. The concentration of stearate in the solution was detected by use of a NEFA C kit. Oleic and linoleate were loaded in the same way. […] Before the treatment with fatty acid, 3T3L1 preadipocytes were grown to 100%, and were starved in 2% FBS medium for 24 hours.
(§2) After treatment, 3T3L1 cells were harvested, washed with cold PBS, and then resuspended in 100 μl annexin-binding buffer (50 mM HEPES, 700 mM NaCl, 12.5 mM CaCl2, pH 7.4). Cell density was determined, and the cells were diluted to 10^6 cells. Then 5μL of Alex Fluo 488 annexin V and 1 μL propidium iodide (PI) were added. Cells were gently oscillated and incubated for 15 min at room temperature. After adding 400 μL of binding buffer to each tube, cells were kept on ice and analyzed by flow cytometry within 1 hour. Cells that stained positive for Alex Fluo 488 annexin V and negative for PI were considered to be apoptotic. Cells that stained positive for both Alex Fluo 488 annexin V and PI were considered either in the end stage of apoptosis, or necrosis. Cells that stained negative for both Alex Fluo 488 annexin V and PI were considered alive and not undergoing measurable apoptosis. A BD LSR II flow cytometer from Becton Dickinson was used in all flow experiments and the data were analyzed with BD FACSDiva™ software V.6.1.3.
(§3) Lactate dehydrogenase (LDH) release was measured using a cytotoxicity detection kit, according to the manufacture's protocol. After 3T3L1 cells were treated, 1 ml of cell culture medium was removed and centrifuged. The supernatant was retained for assaying. For determinations, 100 μl of LDH assay reagent was added to 100 μl of supernatant and incubated for 30 min at room temperature in the dark. Absorbance was measured at 490 nm. Background release from culture medium alone was subtracted before reporting. Maximum release was measured after adding 2% Triton X-100 to untreated cells.
(§4) After treatment, 3T3L1 cells were harvested and stained with 0.4% trypan blue solution. Cells in the four corners of the grid were counted under a conventional bright field binocular microscope.

[2] = system: visceral adipocytes from ApoE knockout mice; test: Expression of cIAP2, Bcl-2 and Bax in visceral adipocyte cultures; assay type: cell-based; settings: 50 μM fatty acid; vs no additional fatty acid
Method: It was hypothesized that stearate induces apoptosis in visceral adipocytes by at least one of the following mechanisms: inhibition of cIAP2, activation of Bcl-2, and activation of BAX. […] Six cultures were exposed to each fatty acid or no fatty acid. The expression of cIAP2, Bcl-2, and Bax was measured in each culture. […] By decreasing levels of the cIAP2 and/or Bcl-2 polypeptides and increasing expression of the Bax polypeptide, stearate administration may lead to an increase in cellular apoptotic activity (such as but not limited to the visceral fat tissues). Without wishing to be bound by any given hypothetical model, it is proposed that this reduction in cIAP2 expression and this increase in Bax expression (independently or in combination) is responsible for the relative decrease in visceral fat tissue that is observed when animals are given a diet that is high in stearate.

[3] = system: differentiated 3T3L1 adipocytes; test: Necrosis and apoptosis of differentiated 3T3L1 adipocytes (trypan blue, LDH, flow cytometry); assay type: cell-based, mouse; settings: 50 μM
Method: 3T3L1 mouse fibroblast cells (ATCC, CL-173™) were maintained according to the manufacture's protocol, in Dulbecco's modified eagle's medium (DMEM) containing 10% Fetal Bovine Serum and antibiotics (M1 medium). Adipocyte differentiation was performed according to standard procedures (42). Briefly, the 3T3L1 fibroblasts were seeded at 30% confluence and allowed to grow to near 100% confluence. On the day after reaching maximum confluence, conversion was induced by replacing the M1 medium with M1 medium containing insulin (5 μg/ml), dexamethasone (0.25 μM), and 3-isobutyl-1-methyl-xanthine (0.5 mM). After 2 days, the cells were changed to M1 medium with insulin (5 μg/ml) for an additional 2 days. Thereafter, the cells were maintained in M1 medium without additives for 2 days.
as §1, §2, §3, §4

[4] = system: ERK; test: Immunoblot of phosphorylated ERK in Hs578T cells; assay type: cell-based, human; settings: PD98059 added to Hs578T cells
Method: (§5) The concentration of stearate used to treat the Hs578T cells was 50 μM. When EGF was used, the concentration was 1 nM EGF. Before the treatment with stearate or EGF, cells were first starved for 24-48 hours. Stearate was loaded onto fatty acid-free bovine serum albumin (BSA) according to the method reported by Spector et al. (13); briefly, stearate (0.5 g) was dissolved in chloroform (100 ml) and mixed well with 10 g diatomaceous earth in a 1 liter flask. The mixture was stirred and dried under nitrogen until powder. BSA is a physiological carrier of fatty acids and was used to avoid the introduction of organic solvents to solutions coming into contact with cells. Fatty acid-free BSA (1 g) was dissolved in 100 ml with Dulbecco's modified Eagle's medium without phenol red and mixed with 3 g of the stearate/diatomaceous earth mixture with stirring for 45 min. The stearate/BSA solution was filtered through a 0.45 μm filter, and adjusted to pH 7.4. The concentration of stearate in the solution was detected with the NEFA C Kit from Wako Chemicals GmbH (Neuss, Germany). All experimental data on Hs578T cells were controlled using fatty acid-free BSA control solutions that were put through the same preparatory procedure described for the stearate/BSA solution except for the fact that no fatty acid was added.
Cells were treated as described above, and lysed with lysis buffer. […]

[5] = system: p21^CIP1/WAF1, p27^KIP1, pCdk2; test: Immunoblot of p21CIP1/WAF1, p27KIP1 and phosphorylated Cdk2 in Hs578T cells; assay type: cell-based, human
Method: as §5
Cells were treated as described above, and lysed with lysis buffer. The supernatants of the lysates or the immunoprecipitates were loaded with Laemmli sample buffer on 10% sodium dodecyl sulfate-polyacrylamide gel electrophoresis gels after boiling at 100° C. for 5 min. Proteins were then transferred to a polyvinylidene difluoride membrane. The membranes were blocked overnight at 4° C. with blocking buffer containing 5% non-fat dried milk powder in Tris-buffered saline-T (25 mM Tris, 140 mM NaCl, 2.7 mM KCl, 0.05% Tween-20, pH 8.0), incubated with primary antibody in blocking buffer at room temperature for 1 hour and incubated with antirabbit or antimouse antibodies labeled with horseradish peroxidase (1:5000) in blocking buffer under the same conditions, and then washed three times for 10 min in Tris-buffered saline-T. The polyvinylidene difluoride membranes were washed and developed using enhanced chemiluminescence reagents.

[6] = PD98059 in stearate-treated cells

CCCCC/C=C\C/C=C\CCCCCCCC(=O)O [linoleate, linoleic acid]
Percentage of dead cells (trypan blue) [1]: no significant changes | Dead cells (flow cytometry) [1]: no significant effects | Cytotoxicity (lactate dehydrogenase) [1]: did not change significantly | Apoptotic cells (flow cytometry) [1]: No significant changes | Expression of Bax [2]: increased the expression of Bax to a lesser extent | Expression of cIAP2 [2]: no statistically significant effect | Cytotoxicity (lactate dehydrogenase in medium) [3]: no significant changes | Percentage of apoptotic cells (flow cytometry) [3]: no significant changes | Percentage of dead cells (flow cytometry) [3]: no significant changes | Percentage of dead cells (trypan blue) [3]: no significant changes

COc1cccc(-c2cc(=O)c3ccccc3o2)c1N [PD98059, 2′-amino-3′-methoxyflavone, reference compound]
ERK phosphorylation induced by stearate and EGF [4]: blocked | Stearate-induced upregulation of p21^CIP1/WAF1 ([5]; PD98059 added following stearate and EGF treatment): reverses | Stearate-induced decrease in pCdk2 [5, 6]: only partially reversed | Stearate-induced increases in p27^KIP1 [5, 6]: did not reverse

CCCCCCCC/C=C\CCCCCCCC(=O)O [oleate, oleic acid]
Percentage of dead cells (trypan blue) [1]: no significant changes | Dead cells (flow cytometry) [1]: significantly decreased | Cytotoxicity (lactate dehydrogenase) [1]: significantly decreased | Apoptotic cells (flow cytometry) [1]: decreased | Cytotoxicity (lactate dehydrogenase in medium) [3]: no significant changes | Percentage of apoptotic cells (flow cytometry) [3]: no significant changes | Percentage of dead cells (flow cytometry) [3]: no significant changes | Percentage of dead cells (trypan blue) [3]: no significant changes
